Experimental data reported in US20050054006A1, “Combinatorial fluorescent library based on the styryl scaffold” (New York University, priority 2003, published 2005).
“Also recorded” adds a separate entry of the source.

Assays:
[1] = tested on: dsDNA (double stranded DNA); assay: Fluorescence change of the dye upon addition of DNA (fluorometric titration); assay type: binding
Method: (§1) With these compounds(FIG. 2), we observed the fluorescence intensity change upon addition of DNA. […] With a series of concentrations of dsDNA (double stranded DNA) added to compound 1, a linear increase in the fluorescence intensities was observed (FIG. 3). At the highest concentration of DNA tested (50 μg/mL), the increase in fluorescence emission reached up to 13.3 times higher than that of the free compound (FIG. 4). A blue shift of 17 nm in the emission wavelength upon DNA addition was observed, without a significant excitation wavelength shift. The structure of compound 1 includes a 2,4,5-trimethoxy group from the benzaldehyde moiety and a unique adamantyl pyridinium functionality.
Different trimethoxy isomers, 2 (3,4,5-trimethoxy) and 3 (2,3,4-trimethoxy) were synthesized to compare the positional effects of the methoxy groups in compound 1 (FIG. 2). While the responses of compound 2 and 3 to DNA treatment were simliar to that of compound 1, the fluorescence emission increase was much smaller in compound 2 (4.3 fold) and compound 3 (1.5 fold).

[2] = Spectrophotometric properties of the free styryl dyes; assay type: physicochemical
Method: as §1

[3] = tested on: UACC-62 human melanoma cells; assay: Organelle localization in live cells by fluorescence microscopy; details: live UACC-62 cells; for LOCALIZATION: fluorescence microscope λex=405, 490, 570 nm, λem>510 nm
[4] = Fluorescence excitation/emission of the styryl dye library compounds; assay type: physicochemical

Compound	EM(nm) ([4]; EX/EM peak no. 1)	EX(nm) ([4]; EX/EM peak no. 1)	LOCALIZATION [3]	further results
COc1cc(OC)c(OC)cc1C=Cc1cc[n+](C23CC4CC(CC(C4)C2)C3)cc1.[Br-] [Compound 1]	–	–	–	blue shift in the emission wavelength upon DNA addition [1]: 17 nm; fluorescence intensity change upon addition of DNA [1]: strong fluorescence increase; increase in fluorescence emission versus free compound ([1]; highest DNA concentration tested, 50 μg/mL): 13.3 times; φF DNA ([1]; quantum yield, with DNA): 0.0032; φF DNA/φF free ([1]; ratio of quantum yields with DNA and free): 13.3; λem DNA (nm) ([1]; with DNA): 566 nm; emission wavelength [2]: 583 nm; excitation wavelength [2]: 413 nm; λem free (nm) ([2]; free dye): 583 nm; λmax (nm) ([2]; free dye): 413 nm; linear fluorescence response range ([2]; in PBS, without self-quenching or wavelength shifts): 0.05 to 100 µM; φF free ([2]; quantum yield, free dye): 0.00024; nuclear localization / staining in live cells ([3]; compounds 1, 2, 3 at the same concentration): more selective staining of the nucleus of live cells
COc1ccc2c(ccc(C=Cc3ccccc3[N+](=O)[O-])[n+]2C)c1.[I-] [Compound I20]	620 nm	420(broad) nm	NUCLEOLI	–
COc1ccc2c(ccc(C=Cc3cccc([N+](=O)[O-])c3)[n+]2C)c1.[I-] [Compound I21]	620 nm	390 nm	VESICLE; also recorded: NUCLEOLI	–
COc1ccc2c(ccc(C=Cc3ccc(N(C)C)c4ccccc34)[n+]2C)c1.[I-] [Compound I27]	630-660 nm	420 nm	NUCLEOLI	–
COc1ccc2c(ccc(C=Cc3ccc4c(c3)Cc3ccccc3-4)[n+]2C)c1.[I-] [Compound I28]	660 nm	450(broad) nm	NUCLEOLI	–
COc1ccc2c(ccc(C=Cc3ccc(F)cc3)[n+]2C)c1.[I-] [Compound I30]	630 nm	–	MITO	–
COc1ccc2c(ccc(C=Cc3c(F)c(F)c(F)c(F)c3F)[n+]2C)c1.[I-] [Compound I31]	610 nm	380 nm	MITO and NUCLEI and CYTO	–
COc1ccc2c(ccc(C=Cc3cccc4ccccc34)[n+]2C)c1.[I-] [Compound I32]	610 nm	360-440 nm	MITO and NUCLEI and NUCLEOLI	–
COc1ccc2c(ccc(/C=C/c3ccc4ccccc4c3)[n+]2C)c1.[I-] [Compound I33]	640 nm	420 nm	VESICLE and MITO and NUCLEI	EM(nm) ([4]; EX/EM peak no. 2): 560 nm; EX(nm) ([4]; EX/EM peak no. 2): 320-460 nm
COc1ccc2c(ccc(C=CC=Cc3ccccc3)[n+]2C)c1.[I-] [Compound I35]	580 nm	320-360 nm	CYTO	–
COc1ccc2c(ccc(C=CC=Cc3ccc(N(C)C)cc3)[n+]2C)c1.[I-] [Compound I37]	730 nm	530 nm	CYTO	–
COc1ccc2c(ccc(C=Cc3cc(OC)c(OC)cc3OC)[n+]2C)c1.[I-] [Compound I38]	620 nm	390 nm	CYTO	–
Cc1ccnc(-c2cc(/C=C/Cc3ccccc3)cc[n+]2C)c1.[I-] [Compound J1]	620 nm	450 nm	MITO	–
Cc1ccnc(-c2cc(/C=C/c3ccccc3Br)cc[n+]2C)c1.[I-] [Compound J3]	620 nm	450 nm	MITO	–
COc1ccccc1C=Cc1cc[n+](C)c(-c2cc(C)ccn2)c1.[I-] [Compound J9]	520 nm	420(broad) nm	MITO	–
COc1ccc(C=Cc2cc[n+](C)c(-c3cc(C)ccn3)c2)cc1.[I-] [Compound J10]	520 nm	350-450 nm	MITO	–

Compound	EM(nm) ([4]; EX/EM peak no. 1)	EX(nm) ([4]; EX/EM peak no. 1)	LOCALIZATION [3]	further results
Cc1ccnc(-c2cc(C=Cc3ccc(OCc4ccccc4)c(OCc4ccccc4)c3)cc[n+]2C)c1.[I-] [Compound J12]	560 nm	350-470 nm	VESICLE	–
COc1ccc(C=Cc2cc[n+](C)c(-c3cc(C)ccn3)c2)cc1O.[I-] [Compound J15]	530 nm	340-440 nm	VESICLE	–
Cc1ccnc(-c2cc(/C=C/c3ccc(N(C)C)cc3)cc[n+]2C)c1.[I-] [Compound J19]	640 nm	480 nm	MITO	–
Cc1ccnc(-c2cc(C=Cc3ccccc3[N+](=O)[O-])cc[n+]2C)c1.[I-] [Compound J20]	620 nm	420 nm	VESICLE	–
Cc1ccnc(-c2cc(C=Cc3c(F)c(F)c(F)c(F)c3F)cc[n+]2C)c1.[I-] [Compound J31]	520 nm	–	MITO	–
Cc1ccnc(-c2cc(/C=C/c3cccc4ccccc34)cc[n+]2C)c1.[I-] [Compound J32]	530 nm	350-450 nm	MITO	–
Cc1ccnc(-c2cc(C=Cc3ccc4ccccc4c3)cc[n+]2C)c1.[I-] [Compound J33]	520 nm	320-450 nm	MITO	–
Cc1ccnc(-c2cc(C=CC=Cc3ccccc3)cc[n+]2C)c1.[I-] [Compound J35]	580 nm	340-420 nm	CYTO	–
COc1cc(OC)c(OC)cc1C=Cc1cc[n+](C)c(-c2cc(C)ccn2)c1.[I-] [Compound J38]	590 nm	380-500 nm	MITO	–
Cc1ccnc(-c2cc(C=Cc3ccc4c(c3)OCO4)cc[n+]2C)c1.[I-] [Compound J39]	560 nm	350-450 nm	MITO	–
COc1ccc(C=Cc2cccc(C)[n+]2C)cc1.[I-] [Compound L10]	510 nm	420 nm	MITO	–
Cc1cccc(/C=C/c2ccc(N(C)C)cc2)[n+]1C.[I-] [Compound L19]	580 nm	450 nm	MITO	–
COc1ccc2ccccc2c1C=Cc1cccc(C)[n+]1C.[I-] [Compound L23]	570 nm	420 nm	CYTO	–
Cc1cccc(C=Cc2cccc3ccccc23)[n+]1C.[I-] [Compound L32]	520 nm	400(broad) nm	MITO	–
Cc1cccc(C=Cc2ccc3ccccc3c2)[n+]1C.[I-] [Compound L33]	500 nm	360-470 nm	MITO	–
Cc1cccc(C=CC=Cc2ccccc2)[n+]1C.[I-] [Compound L35]	510 nm	420 nm	MITO	–
